# Assay: solubility in an organic solvent at 20° C. by an ordinary method
# Format: physicochemical
# Settings: organic solvents of amide, alcohol, ketone, nitrile and halogen systems (chloroform, N,N-dimethyl formamide, methanol, 2,2,3,3-tetrafluoro-1-propanol, ethyl methyl ketone, acetonitrile)
smiles,measurement,value
COc1ccc(OC)c(/N=N/C(=N\[N]([Ni][N](/N=C(\N=N\c2cc(OC)ccc2OC)c2ccccn2)c2ccc([N+](=O)[O-])cn2)c2ccc([N+](=O)[O-])cn2)c2ccccn2)c1 [chemical formula 3],solubility in an organic solvent,practically applicable solubility

# — patent US20050226135A1, “Write-once information recording medium” (KABUSHIKI KAISHA TOSHIBA, priority 2004, published 2005)
